Source: ChEMBL document CHEMBL3351946, “Design and synthesis of potent antitumor water-soluble phenyl N-mustard-benzenealkylamide conjugates via a bioisostere approach” (Eur J Med Chem, 2014)
Active and inactive are the calls of the source. No cut-off for these calls is given here.

What was measured:
[1] = Cell cycle arrest in human HCT116 cells assessed as accumulation at sub-G1 phase at 2 uM after 24 hrs by FACS flow cytometric analysis (reference value: 1.37 +/- 0.95%); type: functional, cell-based; details: HCT-116
[2] = system: HCT-116; assay: Antitumor activity against human HCT116 cells xenografted in nude mouse assessed as survival at 30 mg/kg,iv qd administered for 6 days; type: functional, organism-based; design: dose 30 mg/kg
[3] = Cell cycle arrest in human HCT116 cells assessed as accumulation at G2/M phase at 4 uM after 48 hrs by FACS flow cytometric analysis (reference value: 23.95 +/- 1.87%); type: functional, cell-based; details: HCT-116
[4] = system: Mus musculus; assay: Toxicity in nude mouse xenografted with human H3347 cells assessed as body weight loss at 30 mg/kg,iv qd administered for 6 days measured on day 13 relative to control; type: organism-based; design: dose 30 mg/kg; details: in vivo, 144 h
[5] = Cell cycle arrest in human HCT116 cells assessed as accumulation at S phase at 2 uM after 24 hrs by FACS flow cytometric analysis (reference value: 18.71 +/- 2.25%); type: functional, cell-based; details: HCT-116
[6] = Cell cycle arrest in human HCT116 cells assessed as accumulation at sub-G1 phase at 2 uM after 48 hrs by FACS flow cytometric analysis (reference value: 1.65 +/- 0.06%); type: functional, cell-based; details: HCT-116
[7] = system: Mus musculus; assay: Toxicity in nude mouse xenografted with human PC3 cells assessed as change in body weight at 50 mg/kg,iv administered every 2 days for 5 doses measured on day 38 relative to control; type: organism-based, PC-3; design: dose 50 mg/kg; details: in vivo, 48 h
[8] = Cell cycle arrest in human HCT116 cells assessed as accumulation at G2/M phase at 1 uM after 24 hrs by FACS flow cytometric analysis (reference value: 31.55 +/- 4.63%); type: functional, cell-based; details: HCT-116
[9] = system: Mus musculus; assay: Toxicity in iv dosed CD-1 (ICR) mouse assessed as hypoactivity measured for 14 days; type: organism-based; details: in vivo, 336 h
[10] = Antitumor activity against human PC3 cells xenografted in nude mouse assessed as tumor growth inhibition at 30 mg/kg,iv qd administered for 6 days measured on day 38 relative to control; type: functional; details: PC-3, iv, read-out: TGI
[11] = system: Mus musculus; assay: Toxicity in nude mouse xenografted with human PC3 cells assessed as body weight loss at 50 mg/kg,iv administered every 2 days for 5 doses measured on day 16 relative to control; type: organism-based, PC-3; design: dose 50 mg/kg; details: in vivo, 48 h
[12] = Cell cycle arrest in human HCT116 cells assessed as accumulation at sub-G1 phase at 2 uM after 72 hrs by FACS flow cytometric analysis (reference value: 3.29 +/- 1.39%); type: functional, cell-based; details: HCT-116
[13] = Cell cycle arrest in human HCT116 cells assessed as accumulation at G1 phase at 4 uM after 48 hrs by FACS flow cytometric analysis (reference value: 62.16 +/- 5.94%); type: functional, cell-based; details: HCT-116
[14] = Cell cycle arrest in human HCT116 cells assessed as accumulation at S phase at 4 uM after 72 hrs by FACS flow cytometric analysis (reference value: 7.49 +/- 0.95%); type: functional, cell-based; details: HCT-116
[15] = Antitumor activity against human HCT116 cells xenografted in nude mouse assessed as tumor growth inhibition at 75 mg/kg,[…] ip administered every 7 days for 2 doses relative to control; type: functional; details: HCT-116, ip, 168 h, route intraperitoneal, read-out: TGI
[16] = system: Mus musculus; assay: Toxicity in iv dosed CD-1 (ICR) mouse assessed as swelling of nose measured for 14 days; type: organism-based; details: in vivo, 336 h
[17] = Cell cycle arrest in human HCT116 cells assessed as accumulation at sub-G1 phase at 4 uM after 48 hrs by FACS flow cytometric analysis (reference value: 1.65 +/- 0.06%); type: functional, cell-based; details: HCT-116
[18] = system: Mus musculus; assay: Toxicity in nude mouse xenografted with human HCT116 cells assessed as change in body weight at 30 mg/kg,iv qd administered for 6 days measured on day 31 relative to control; type: organism-based, HCT-116; design: dose 30 mg/kg; details: in vivo, 144 h
[19] = Cell cycle arrest in human HCT116 cells assessed as accumulation at S phase at 2 uM after 72 hrs by FACS flow cytometric analysis (reference value: 7.49 +/- 0.95%); type: functional, cell-based; details: HCT-116
[20] = Antitumor activity against human PC3 cells xenografted in nude mouse assessed as tumor growth inhibition at 40 mg/kg,iv administered every 2 days for 5 doses measured on day 21 relative to control; type: functional, PC-3
[21] = Cytotoxicity against human DLD1 cells assessed as growth inhibition after 72 hrs by Alamar Blue assay; type: functional, cell-based; details: DLD-1, 72 h
[22] = Cell cycle arrest in human HCT116 cells assessed as accumulation at S phase at 1 uM after 48 hrs by FACS flow cytometric analysis (reference value: 12.11 +/- 4.28%); type: functional, cell-based; details: HCT-116
[23] = system: PC-3; assay: Antitumor activity against human PC3 cells xenografted in nude mouse assessed as survival at 30 mg/kg,iv qd administered for 6 days; type: functional, organism-based; design: dose 30 mg/kg

Compound: CCN(CC)CC(=O)Nc1ccc(NC(=O)Nc2ccc(N(CCCl)CCCl)cc2)cc1
- Activity [1]: 1.55%
- Activity [2]: Active
- Activity [3]: 54.1%
- Activity [4]: 10%
- Activity [5]: 23.9%
- Activity [6]: 8.48%
- Activity [7]: -8%
- Activity [8]: 63.2%
- Activity [9]: Dose-dependent effect
- inhibition in vivo at 30 mg/kg [10]: 16%
- %max [11]: -16%
- Activity [12]: 19.7%
- Activity [13]: 19%
- Activity [14]: 19.8%
- inhibition in vivo at 75 mg/kg [15]: 54%
- Activity [16]: Dose-dependent effect
- Activity [17]: 10.5%
- Activity [18]: 9%
- Activity [19]: 12.1%
- %max [20]: 68%
- IC50 [21]: 3.85 µM
- Activity [22]: 11.9%
- Activity [23]: Active
